The values below come from patent US20080269266A1, “NOVEL COMPOUNDS 747” (ASTRAZENECA AB, priority 2007, published 2008).

For series [1], the target named is T1, human cytochrome P450 (CYP) 2C19 (Homo sapiens, UniProt P33261).
T1 construct: made in house; host or cells: yeast cell lines (microsomal fractions)
The series can be described thus: Cytochrome P450 Inhibition Assay 2C19. The format is in vitro ADME. As to conditions: read-out: IC50 range, CYP 2C19. Here is the method:
The inhibitory potential (IC50) of test compounds against 5 human cytochrome P450 (CYP) isoforms (1A2, 2C9, 2C19, 3A4 and 2D6) was assessed using an automated fluorescent end point in vitro assay modified from Crespi (Crespi and Stresser, 2000). Microsomal subcellular fractions prepared from Yeast cell lines expressing each human CYP isoform were used as an enzyme source in this assay. The activity of the 5 major human CYPs was determined from the biotransformation of a number of coumarin substrates to fluorescent metabolites, in the presence of NADPH. […] Stock solutions of each CYP, with its respective substrate, were prepared in phosphate buffer pH7.4 (see Table 1) and 178 μl was added to the well of a black solid, flat bottom, 300 μl 96 well is microtitre plate (Corning Costar). […] After pre-incubating at 37° C. for 5 min the reactions were started with addition of NADPH (20 μl, concentration shown in Table 1). The final solvent content in each incubation was <=2% (1% from the test compound and a maximum of 1% from the substrate). The appropriate solvent controls and substrate blanks were included in each experiment to assess control activity and identify any inherent fluorescence due to the test compounds. In addition, known inhibitors of each CYP were included as positive controls (see Table 3 for inhibitor concentrations and expected IC50 ranges). The reactions were stopped at defined timepoints (see Table 1) by quenching with 100 μl of solvent (acetonitrile:0.5M Tris buffer 80:20 v/v). The plates were read on a fluorimeter (Spectrafluor Plus) at the appropriate excitation and emission wavelengths (listed in Table 2) and the percent activity, corrected for control, was plotted against the test compound concentration.

A short description of series [2]: Solubility in 0.1 M phosphate buffer pH 7.4. The series is classed as physicochemical. As to conditions: pH 7.4, 24 h, 25° C. On the procedure: Solubility values are determined by agitation of compounds in 0.1 M phosphate buffer at pH 7.4 for 24 h at 25° C. The supernatant is separated from undissolved material by double centrifugation and subsequently analyzed and quantified against a standard of known concentration in DMSO using generic HPLC-UV methodology coupled with mass spectral peak identification (J. Med. Chem., 2006, 49(23), 6672-6682).

T1 sequence (P33261 whole entry): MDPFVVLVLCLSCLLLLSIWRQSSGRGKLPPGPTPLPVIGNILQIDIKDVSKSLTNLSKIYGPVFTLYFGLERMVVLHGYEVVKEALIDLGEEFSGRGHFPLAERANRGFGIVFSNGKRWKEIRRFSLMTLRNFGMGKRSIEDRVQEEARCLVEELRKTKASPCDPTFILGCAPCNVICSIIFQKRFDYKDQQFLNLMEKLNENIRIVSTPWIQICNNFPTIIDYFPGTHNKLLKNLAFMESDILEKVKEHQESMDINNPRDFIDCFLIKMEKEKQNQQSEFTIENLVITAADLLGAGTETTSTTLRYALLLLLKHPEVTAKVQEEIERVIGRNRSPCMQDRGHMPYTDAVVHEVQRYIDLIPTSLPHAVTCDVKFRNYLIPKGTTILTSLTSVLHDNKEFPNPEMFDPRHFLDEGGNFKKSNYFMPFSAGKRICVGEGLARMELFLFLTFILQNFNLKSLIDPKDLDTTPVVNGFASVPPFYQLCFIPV

As usually defined, the IC50 is the concentration that inhibits the measured activity by half. As for `COc1ccc2[nH]c([S+]([O-])Cc3ncc(C)c(OC)c3C)nc2c1` (centres unmarked) [Omeprazole], the IC50 in series [1] lay in the range of 1.5 to 4.6 µM.
Consider `COc1cc(Nc2cc(C)n[nH]2)nc(N2CCC[C@H]2c2cc(-c3ncccn3)no2)n1` [mixture of Forms 1 and 3, (S)-6-Methoxy-2-{2-[3-(pyrimid-2-yl)isoxazol-5-yl]pyrrolidin-1-yl}-4-(5-methyl-1H-pyrazol-3-ylamino)pyrimidine], for which, in series [2], the Solubility entry is “around 18 μM”.
